The text below walks through data of ChEMBL document CHEMBL1128907, “Platelet glycoprotein IIbIIIa receptor (GPIIbIIIa) antagonists derived from amidinoindoles” (Bioorg Med Chem Lett, 1996).

Square brackets hold non-standard residues; d marks the D form. Peptide text beside a SMILES is read from it. Pen = CC(C)(S)[C@H](N)C(=O)O; Mpa = O=C(O)CCS Some results are limits rather than exact numbers.

The species entered for one assay is Homo sapiens. Description: Functional inhibition of the GPIIb-IIIa receptor was reflected as its ability to antagonize ADP induced platelet aggregation in human platelet-rich plasma. The format is organism-based.
In assay [1] the target is Integrin alpha-IIb/beta-3 (Homo sapiens, UniProt P05106+P08514). Description: Inhibition of platelet glycoprotein alpha IIb beta-3 integrin in ELISA.
Sequence of Integrin alpha-IIb/beta-3 (P05106 27-788 limits assumed): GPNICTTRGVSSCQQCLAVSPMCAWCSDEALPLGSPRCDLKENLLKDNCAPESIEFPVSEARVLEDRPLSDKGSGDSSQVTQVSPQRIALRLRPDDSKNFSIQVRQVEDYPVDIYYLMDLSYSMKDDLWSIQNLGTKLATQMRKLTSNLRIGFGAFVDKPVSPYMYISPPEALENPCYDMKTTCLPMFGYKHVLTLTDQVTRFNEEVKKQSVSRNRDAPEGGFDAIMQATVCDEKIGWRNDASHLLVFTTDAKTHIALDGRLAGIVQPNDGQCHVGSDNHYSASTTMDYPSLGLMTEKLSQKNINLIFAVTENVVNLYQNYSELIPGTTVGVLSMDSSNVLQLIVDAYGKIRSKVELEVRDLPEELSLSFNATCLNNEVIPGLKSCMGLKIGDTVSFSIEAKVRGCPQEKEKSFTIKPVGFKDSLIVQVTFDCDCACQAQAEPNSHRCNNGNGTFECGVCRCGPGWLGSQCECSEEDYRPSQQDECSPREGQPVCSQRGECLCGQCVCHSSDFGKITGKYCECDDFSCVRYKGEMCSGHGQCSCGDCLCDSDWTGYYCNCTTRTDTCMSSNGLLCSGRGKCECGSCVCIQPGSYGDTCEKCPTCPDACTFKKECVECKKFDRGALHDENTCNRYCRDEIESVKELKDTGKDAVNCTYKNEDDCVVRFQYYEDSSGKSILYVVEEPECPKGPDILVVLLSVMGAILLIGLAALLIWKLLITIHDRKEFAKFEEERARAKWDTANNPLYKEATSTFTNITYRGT
Sequence of Integrin alpha-IIb/beta-3 (P08514 32-887 limits assumed): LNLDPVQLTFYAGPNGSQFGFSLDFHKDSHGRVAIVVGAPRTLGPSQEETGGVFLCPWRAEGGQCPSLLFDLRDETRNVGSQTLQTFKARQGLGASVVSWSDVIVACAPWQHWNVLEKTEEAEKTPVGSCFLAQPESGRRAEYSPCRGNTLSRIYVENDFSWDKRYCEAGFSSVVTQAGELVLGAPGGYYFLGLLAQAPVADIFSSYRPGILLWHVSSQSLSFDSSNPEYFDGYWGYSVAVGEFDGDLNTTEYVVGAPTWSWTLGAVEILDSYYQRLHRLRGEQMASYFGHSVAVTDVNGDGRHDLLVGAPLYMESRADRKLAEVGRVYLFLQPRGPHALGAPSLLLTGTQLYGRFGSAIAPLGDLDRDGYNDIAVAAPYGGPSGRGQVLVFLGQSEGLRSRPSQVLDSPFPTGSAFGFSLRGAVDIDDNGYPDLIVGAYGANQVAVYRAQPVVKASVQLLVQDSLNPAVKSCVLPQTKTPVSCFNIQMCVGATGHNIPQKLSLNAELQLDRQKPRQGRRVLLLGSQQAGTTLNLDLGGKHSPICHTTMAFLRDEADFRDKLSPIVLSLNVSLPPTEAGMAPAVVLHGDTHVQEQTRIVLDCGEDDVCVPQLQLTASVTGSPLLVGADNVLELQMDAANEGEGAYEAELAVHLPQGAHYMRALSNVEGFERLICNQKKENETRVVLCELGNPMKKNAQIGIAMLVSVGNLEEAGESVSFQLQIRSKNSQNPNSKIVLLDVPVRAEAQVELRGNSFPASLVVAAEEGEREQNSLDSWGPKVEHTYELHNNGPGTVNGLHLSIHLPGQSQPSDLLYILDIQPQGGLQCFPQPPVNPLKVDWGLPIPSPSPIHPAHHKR
Sequence of Integrin alpha-IIb/beta-3 (P08514 891-1039 limits assumed): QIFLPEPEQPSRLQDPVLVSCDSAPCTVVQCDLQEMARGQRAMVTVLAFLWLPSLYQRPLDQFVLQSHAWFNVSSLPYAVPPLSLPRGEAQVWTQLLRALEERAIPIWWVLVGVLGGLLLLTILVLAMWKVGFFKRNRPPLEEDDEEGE

In the assay listed under Homo sapiens, `N=C(N)c1ccc2[nH]c(C(=O)NCCCCCCC(=O)O)cc2c1` returned an IC50 of 2700 nM.
With `N=C(N)c1ccc2[nH]cc(C(=O)NCCCCCCC(=O)O)c2c1`, the IC50 (in the assay listed under Homo sapiens; in assay [1]) was greater than 100000 nM in each case.
In the case of `N=C(N)c1ccc2[nH]cc(C(=O)NCCCCCCCC(=O)O)c2c1`, the IC50 (in the assay listed under Homo sapiens; in assay [1]) was greater than 100000 nM throughout.
With `N=C(N)c1ccc2[nH]c(C(=O)NCCCCCCCC(=O)O)cc2c1`, in the assay filed under Homo sapiens, the half-maximal inhibitory concentration (IC50) was greater than 100000 nM.
On to `N=C(N)c1cccc(NCC(=O)NCCCCCCC(=O)O)c1`, for which the IC50 in the assay filed under Homo sapiens is greater than 100000 nM; in assay [1], 64000 nM.
As to `N=C(N)c1ccc2[nH]c(C(=O)NCCCCCC(=O)O)cc2c1`, the IC50 in the assay listed under Homo sapiens was greater than 100000 nM; in assay [1], 30000 nM.
In the case of `CC(C)(S)[C@H](NC(=O)[C@H](CCCN=C(N)N)NC(=O)[C@H](Cc1c[nH]c2ccccc12)NC(=O)[C@H](CC(=O)O)NC(=O)CNC(=O)[C@H](CCCN=C(N)N)NC(=O)CCS)C(N)=O` ([Mpa]RGDWR[Pen]-NH2), the results for the IC50 (in the assay filed under Homo sapiens; in assay [1]) were 280 nM and 120 nM, respectively.
Regarding `N=C(N)c1ccc2cc(C(=O)NCCCCCCC(=O)O)[nH]c2c1`, the values for the IC50 (in the assay listed under Homo sapiens; in assay [1]) were 1300 nM and 150 nM, respectively.
As for `N=C(N)c1ccc(NCC(=O)NCCCCCCC(=O)O)cc1`, the IC50 in the assay filed under Homo sapiens stood at 67000 nM.
Consider `N=C(N)c1ccc2c(C(=O)NCCCCCCC(=O)O)c[nH]c2c1`, for which the IC50 came out at 650 nM in the assay listed under Homo sapiens and 100 nM in assay [1].
